We go through 3 compounds from patent US20150133341A1, “Intra-Operative Cancer Diagnosis Based on a Hyperpolarized Marker” (ALBEDA INNOVATIONS APS, priority 2012, published 2015).

In assay [1] the test system is carboxyl esterase in lysed lymphocytes (B + T cells). As to the kind of experiment: Carboxyl esterase activity in cell extract, 1H NMR. In kind it is biochemical, human. Conditions: 5 million lysed cells; for Metabolic conversion, Lymphocytes (B + T cells): 37° C. On the procedure: (§1) The hydrolysis of the substrates was investigated in cell extracts. To test substrates without isotope labelling for carboxyl esterase activity in a cellular background, a ^1H NMR assay was applied. Human breast cancer cells (MCF-7) and human prostate cancer cells (PC-3) were grown in RPMI medium with 10% FBS and antibiotics. They were at confluence harvested by trypsination and washed once with 5 ml PBS. They were spun down and resuspended in PBS to a concentration of 20 mill. cells/ml. The cells were hereafter sonicated on ice (50% amplitude, 1 min, 3 sec pulse). Human lymphocytes were purified from whole blood. Whole blood samples were drawn from healthy volunteer into heparinised venous blood collection tubes (Venosafe vacumtubes from Terumo). For each experiment, the blood was purified freshly: Three and a half 10 mL tubes of blood were pooled in each of four 50 mL Leucosep (Greiner) tubes prepared with 15 mL Histopaque 1077 (Sigma). The Leucosep tubes were spun for 15 min at 800× g at 24 C. The plasma was removed and the white blood cells were transferred to a 50 mL falcon tube by decanting and diluted 1:2 in PBS-Mg—Ca for a total volume of 50 mL. The cells were sedimented by centrifugation at 250×g for 60 min. Diluting with trypan blue and counting in hemocytometer determined the total number of lymphocytes before sedimentation. All cells were viable and the total number of cells in each cell batch was approx. 60 million. The lymphocytes were redissolved to a concentration of 20 million cells/ml. The cells were hereafter sonicated on ice (50% amplitude, 1 min, 3 sec pulse).
(§2) 250 μl sonicated cell suspension was mixed with 250 μl 400 mM phosphate buffer pH 7.3. This solution was transferred to a 5 mm NMR tube and warmed on a water bath to 37° C. The substrate was added (50 μl, 60 mM) and the tube turned for mixing before it was inserted into the spectrometer. The data was analyzed with MNOVA software and measured as percentage conversion of substrate calculated to account for the amount of substrate converted over 60 min; numbers are given in μmol/hour.

Assay [2] relates to carboxyl esterase in lysed breast cancer cells (MCF-7). Nature of the assay: Carboxyl esterase activity in cell extract, 1H NMR. In kind it is biochemical, human. Conditions: 5 million lysed cells; for Metabolic conversion, Breast cancer cells MCF-7: 37° C. On the procedure:
as §1, §2

In assay [3] the test system is carboxyl esterase in lysed prostate cancer cells (PC-3). Nature of the assay: Carboxyl esterase activity in cell extract, 1H NMR. In kind it is biochemical, human. Conditions: for Metabolic conversion, Prostate cancer cells PC-3: 37° C. On the procedure: as §1, §2
Assay [4] deals with isolated CE-1 enzyme from porcine liver. Nature of the assay: CE-1 activity on short chain esters, 1H NMR. In kind it is biochemical. As to conditions: 37° C.; for k: 26 μmol substrate, conversion over 60 min. An excerpt:
To measure almost exclusively the contribution of carboxyl esterase activity from the CE-2 isoform, human breast cancer cells (MCF-7) were employed. These cells are known from literature to express CE-2 but not to express CE-1 (Byun et al, 2008, Cancer letters 266:238-48). A group of esters was investigated as substrates for CE-1, which contained different structural features. These consisted of esters of un-substituted acids (examples are ethyl acetate, ethyl butyrate, methyl butyrate), esters of acids substituted on C2 (examples are ethyl lactate and ethyl 2-acetoxy propanoate), esters of acids substituted on C3 (examples are ethyl 3-hydroxy butyrate and ethyl 3-acetoxy butanoate), esters of ring closed acids (example ethyl pyroglutamate), esters of di-acids (examples are diethyl succinate and dimethyl succinate), esters of tri-acids (example triethyl citrate), ethyl esters of beta-keto acids (example ethyl acetoacetate). Also esters with large alcohol groups and small acid groups were investigated. In this group, the acid part of the molecule was always acetate and different structural properties of the alcohol were investigated. These consisted of esters of un-substituted alcohols (examples ethyl acetate and butyl acetate), esters of branched chain alcohols (examples t-butyl acetate, ethyl 3-acetoxy butanoate and 2-acetoxy propionate), esters of aromatic alcohols (example benzyl acetate), esters of diols (example ethyleneglycol diacetate), esters of triols (example triacetin). […] Similarly, a group of esters which contained different structural features was investigated as substrates for CE-2. CE-2 substrates are described in the literature to consist of a small acid group and a larger alcohol group. All included esters were acetate esters (i.e. esters of acetic acid) in the interest of keeping the acid moiety the smallest possible. The acetate esters measured for CE-2 activity were therefore the same as those measured in the second group of possible substrates for CE-1.
The CE-1 experiments were performed with commercially available CE-1 from porcine liver. Individual samples of the substrates were all prepared the following way: 26 μmol was weighted in an eppendorf tube. 550 μl deuterated phosphate buffer (200 mM, pH 7.5) was added and the substrate was brought into solution by whirl mixing. The solution was transferred to a 5 mm NMR tube and inserted in the spectrometer at 37° C. A reference experiment was acquired on the substrate solution without enzyme after which 10 μl of an esterase stock solution (37 U/ml in deuterated phosphate buffer) was added in the top of the tube. The sample was mixed and returned to the spectrometer. A series of thermal 1D ^1H NMR experiments were recorded every 5 min for 60 min. The data were analysed with MNOVA software and measured as percentage conversion of substrate calculated to account for the amount of substrate converted over 60 min. The numbers are given in μmol/min.

The mark [5] stands for this setting: acetate vs ethyl ester function.

For `CCOC(=O)CC(C)OC(C)=O` (centres unmarked) [ethyl 3-acetoxy butanoate], the Lymphocytes (B + T cells) Ratio acetate/ethyl in assay [1] (setting [5]) amounted to 1. The Breast cancer cells MCF-7 Ratio acetate/ethyl in assay [2] (setting [5]) was found to be 2. Moreover, in assay [3] (5 million lysed cells, acetate vs ethyl ester function), the Prostate cancer cells PC-3 Ratio acetate/ethyl worked out at 9. Besides, in assay [4] (hydrolysis of the acetate ester function, 60 min), the “k (μmol/min), acetate ester” value worked out at 0 µmol/min. Moreover, in assay [4] (hydrolysis of the ethyl ester function, 60 min), the “k (μmol/min), ethyl ester” value is 0.08 µmol/min.
As to `CC(=O)OCC(COC(C)=O)OC(C)=O` [Tri-acetin], the “Metabolic conversion, Lymphocytes (B + T cells)” value in assay [1] was 0.18 µmol/h. The “Metabolic conversion, Breast cancer cells MCF-7” value in assay [2] worked out at 0.27 µmol/h. Further, in assay [3] (5 million lysed cells), the “Metabolic conversion, Prostate cancer cells PC-3” value worked out at 1.8 µmol/h. In addition, the “k” value in assay [4] was 0.02 µmol/min.
As to `CC(=O)OCc1ccccc1` [Benzyl acetate], in assay [1], the “Metabolic conversion, Lymphocytes (B + T cells)” value came out at 0.39 µmol/h. For the same compound, the “Metabolic conversion, Breast cancer cells MCF-7” value in assay [2] was determined as 1.05 µmol/h. Further, in assay [3] (5 million lysed cells), the “Metabolic conversion, Prostate cancer cells PC-3” value was 22 µmol/h. For the same compound, the “metabolic conversion in prostate cancer cells compared to lymphocytes” value in assay [3] (cell number basis, positive contrast) was roughly 60 times. Moreover, in assay [4], the “k” value was 0.07 µmol/min.
